Literature values in patent publication US20200113803A1, “ANHYDROUS COMPOSITION OF SMALL-MOLECULE POLYSACCHARIDES AND APPLICATION THEREOF” (SAGE PHARMACEUTICALS, INC., priority 2016, published 2020).

Settings: background statement

ability of HA to hold water: up to 1000 ml water for 1 g of HA
Substance: Hyaluronic acid [HA]
